The source made the active and inactive calls. The rule behind the calls is not given here.
Experiments:
[1] = test system: Mitochondrial membrane; test: Disruption of mitochondrial potential loss in human MDA-MB-231 cells assessed as decrease in JC-1 aggregates at 1 uM incubated for 24 hrs by JC-1 staining based flow cytometric analysis (Rvb =98.1%); assay type: cell membranes; design: scale not given: the % may be the effect or the level left
[2] = test system: BT-549; test: Antitumor activity against human BT-549 cells xenografted in female BALB/c mouse model assessed as reduction of proliferation rate of tumor at 5 to 20 mg/kg administered subcutaneously and measured every day; assay type: functional, organism-based; details: dose 5-20 mg/kg, route sc
[3] = Toxicity in female BALB/c mouse xenografted with human MDA-MB-231 cells assessed as effect on pathological changes in lung at 5 to 20 mg/kg, sc by H and E staining based analysis; assay type: organism-based; details: in vivo, dose 5-20 mg/kg
[4] = test system: BT-549; test: Antiproliferative activity against human BT-549 cells xenografted in female BALB/c mouse model assessed as fold change in upregulation of BAX protein level at 5 mg/kg administered subcutaneously incubated for 24 hrs by Western blot analysis (reference value: 1.00%); assay type: functional; details: route sc
[5] = test system: MDA-MB-231; test: Antiproliferative activity against human MDA-MB-231 cells xenografted in female BALB/c mouse model assessed as fold change in upregulation of BIP protein level at 20 mg/kg administered subcutaneously incubated for 24 hrs by Western blot analysis (reference value: 1.00%); assay type: functional; details: route sc
[6] = test system: BT-549; test: Induction of apoptosis in human BT-549 cells assessed as early apoptotic cells at 1 uM incubated for 24 hrs by Annexin V-PI staining based flow cytometric analysis (reference value: 0.78%); assay type: functional
[7] = Toxicity in female BALB/c mouse xenografted with human MDA-MB-231 cells assessed as effect on pathological changes in spleen at 5 to 20 mg/kg, sc by H and E staining based analysis; assay type: organism-based; details: in vivo, dose 5-20 mg/kg
[8] = test system: BT-549; test: Induction of apoptosis in human BT-549 cells assessed as viable cells at 1 uM incubated for 24 hrs by Annexin V-PI staining based flow cytometric analysis (reference value: 93.0%); assay type: functional; details: read-out: Activity
[9] = test system: BT-549; test: Inhibition of glycolysis in human BT-549 cells assessed as decrease in LDHA protein level at 0.5 to 2 uM incubated for 24 hrs by Western blot analysis; assay type: functional, cell-based; details: dose 0.5-2 µM
[10] = Toxicity in female BALB/c mouse assessed as change in spleen administered subcutaneously measured upto 16 days; assay type: tissue-based; details: in vivo, sc, 384 h, time < 16 day
[11] = test system: MDA-MB-231; test: Downregulation of c-Jun level in human MDA-MB-231 cells incubated for 24 hrs by Western blot analysis; assay type: functional, cell-based; details: dose 0.5-2 µM
[12] = Toxicity in female BALB/c mouse assessed as change in kidney administered subcutaneously measured upto 16 days; assay type: tissue-based; details: in vivo, sc, 384 h, time < 16 day
[13] = test system: MDA-MB-231; test: Antiproliferative activity against human MDA-MB-231 cells xenografted in female BALB/c mouse model assessed as fold change in downregulation of MMP-2 protein level at 10 mg/kg administered subcutaneously incubated for 24 hrs by Western blot analysis (reference value: 1.00%); assay type: functional; details: route sc
[14] = Toxicity in female BALB/c mouse xenografted with human MDA-MB-231 cells assessed as effect on pathological changes in heart at 5 to 20 mg/kg, sc by H and E staining based analysis; assay type: organism-based; details: in vivo, dose 5-20 mg/kg
[15] = test system: MDA-MB-231; test: Inhibition of glycolysis in human MDA-MB-231 cells assessed as decrease in LDHA protein level at 0.5 to 2 uM incubated for 24 hrs by Western blot analysis; assay type: functional, cell-based; details: dose 0.5-2 µM
[16] = test system: MDA-MB-231; test: Induction of apoptosis in human MDA-MB-231 cells assessed as upregulation of cleavage of caspase-8 expression at 0.5 to 2 uM incubated for 24 hrs by Western blot analysis; assay type: functional, cell-based; details: dose 0.5-2 µM
[17] = test system: BT-549; test: Antiproliferative activity against human BT-549 cells xenografted in female BALB/c mouse model assessed as as fold change in cleavage of caspase-3 level at 10 mg/kg administered subcutaneously incubated for 24 hrs by Western blot analysis (reference value: 1.00%); assay type: functional; details: route sc
[18] = test system: MDA-MB-231; test: Antiproliferative activity against human MDA-MB-231 cells xenografted in female BALB/c mouse model assessed as fold change in inhibition of PKM2 expression at 10 mg/kg administered subcutaneously incubated for 24 hrs by Western blot analysis (reference value: 1.00%); assay type: functional; details: route sc
[19] = Selectivity ratio of IC50 for antiproliferative activity against human MCF-10A cells assessed as inhibition of cell proliferation incubated for 24 hrs by MTT assay to IC50 for antiproliferative activity against human MDA-MB-231 cells assessed as inhibition of cell proliferation incubated for 24 hrs by MTT assay; assay type: cell-based; details: MCF-10A cells versus MDA-MB-231 cells, read-out: Ratio IC50
[20] = test system: MDA-MB-231; test: Induction of ER stress in human MDA-MB-231 cells assessed as appearance of large number of vacuoles at 1 uM incubated for 24 hrs by TEM analysis; assay type: functional, cell-based
[21] = test system: BT-549; test: Induction of ER stress in human BT-549 cells assessed as appearance of large number of vacuoles at 1 uM incubated for 24 hrs by TEM analysis; assay type: functional, cell-based
[22] = test system: MDA-MB-231; test: Inhibition of tumor sphere formation in human MDA-MB-231 cells at 1 uM incubated for 24 hrs by microscopic analysis; assay type: functional, cell-based
[23] = test system: BT-549; test: Antitumor activity against human BT-549 cells xenografted in female BALB/c mouse model assessed as reduction in tumor weight administered subcutaneously and measured every day; assay type: functional, cell-based; details: dose 5-20 mg/kg, route sc
[24] = test system: MDA-MB-231; test: Antiproliferative activity against human MDA-MB-231 cells xenografted in female BALB/c mouse model assessed as fold change in downregulation of MMP-2 protein level at 5 mg/kg administered subcutaneously incubated for 24 hrs by Western blot analysis (reference value: 1.00%); assay type: functional; details: route sc
[25] = Toxicity in female BALB/c mouse assessed as change in heart administered subcutaneously measured upto 16 days; assay type: tissue-based; details: in vivo, sc, 384 h, time < 16 day
[26] = test system: BT-549; test: Antiproliferative activity against human BT-549 cells xenografted in female BALB/c mouse model assessed as fold change in upregulation of BAX protein level at 10 mg/kg administered subcutaneously incubated for 24 hrs by Western blot analysis (reference value: 1.00%); assay type: functional; details: route sc
[27] = test system: Mitochondrial membrane; test: Disruption of mitochondrial potential loss in human MDA-MB-231 cells assessed as increase in JC-1 monomers at 1 uM incubated for 24 hrs by JC-1 staining based flow cytometric analysis (Rvb =1.68%); assay type: cell membranes
[28] = Antiproliferative activity against human MCF-10A cells assessed as inhibition of cell proliferation incubated for 48 hrs by MTT assay; assay type: toxicity, cell-based
[29] = test system: BT-549; test: Induction of apoptosis in human BT-549 cells assessed as early apoptotic cells at 2 uM incubated for 24 hrs by Annexin V-PI staining based flow cytometric analysis (reference value: 0.78%); assay type: functional
[30] = test system: MDA-MB-231; test: Induction of apoptosis in human MDA-MB-231 cells assessed as necrotic cells at 2 uM incubated for 24 hrs by Annexin V-PI staining based flow cytometric analysis (reference value: 1.29%); assay type: functional
[31] = test system: BT-549; test: Inhibition of glycolysis in human BT-549 cells assessed as decrease in PKM2 protein level at 0.5 to 2 uM incubated for 24 hrs by Western blot analysis; assay type: functional, cell-based; details: dose 0.5-2 µM
[32] = test system: BT-549; test: Antiproliferative activity against human BT-549 cells xenografted in female BALB/c mouse model assessed as fold change in downregulation of MMP-2 protein level at 10 mg/kg administered subcutaneously incubated for 24 hrs by Western blot analysis (reference value: 1.00%); assay type: functional; details: route sc
[33] = test system: MDA-MB-231; test: Induction of ER stress in human MDA-MB-231 cells assessed as activation of Xbp-1s protein level incubated for 24 hrs by Western blot analysis; assay type: functional, cell-based; details: dose 0.5-2 µM

CC(C)=CCC/C(C)=C/[C@H]1OC(=O)CC12C[C@H](OC(=O)Cc1ccc(NC(=O)/C=C/c3ccccc3)cc1)C=CC2=O (stereo partly drawn)
Activity [1]: 58.2%
Activity [2]: Active
Activity [3]: Non-Toxic
fold change (FC) [4]: 1.4
fold change (FC) [5]: 2.42
Activity [6]: 3.62%
Activity [7]: Non-Toxic
viability at 1 µM [8]: 66%
inhibition [9]: Active
Activity [10]: Non-Toxic
Activity [11]: Dose-Dependent Effect
Activity [12]: Non-Toxic
fold change (FC) [13]: 0.26
Activity [14]: Non-Toxic
inhibition [15]: Active
Activity [16]: Active
fold change (FC) [17]: 1.72
fold change (FC) [18]: 0.62
selectivity ratio at 24 h [19]: 67.2
Activity [20]: Active
Activity [21]: Active
inhibition [22]: Active
Activity [23]: Dose-Dependent Effect
fold change (FC) [24]: 0.44
Activity [25]: Non-Toxic
fold change (FC) [26]: 1.61
Activity [27]: 42.6%
IC50 at 48 h [28]: 16 µM
Activity [29]: 11.1%
Activity [30]: 6.53%
inhibition [31]: Active
fold change (FC) [32]: 0.75
Activity [33]: Active

Reference: ChEMBL document CHEMBL6071165, “Design, synthesis and biological evaluation of plant-derived miliusol derivatives achieve TNBC profound regression in vivo” (Eur J Med Chem, 2024)
